Counter-ions that a name gives are not always drawn. Like-named read-outs stand apart in the source and are kept apart here.
Experiments:
Format in all cases: in vivo
catalase enzyme = assay: Hepatic tolerability, 15 days at high dose: catalase enzyme activity in liver (index of peroxysomes proliferation); settings: rat liver, 200 mg/kg, standard; absolute values; solvent 539,8
Procedure: (§1) The hypolipemizing activity of the compounds of the present invention has been evaluated in the rat using SD male animals (Charles River) of an initial weight of 150 g, housed in controlled environment at a temperature of 21°±1° C., relative humidity 60% and a 12 hours light/dark cycle. The animals were fasted with this diet for 15 days consecutively, during which they received the pharmacological treatment once a day by oral route and were sacrificed 24 hours after the last administration. At the sacrifice time the blood was removed for the lipid determination and the liver was removed as well to be weighed and used for the evaluation of the catalase enzyme as the index of the peroxysomes proliferation and thus of hepatotoxicity. In order to evaluate the hepatic tolerability of the compounds of interest they have been administered for 15 days at a high dose (300 mg/kg/day) according to the same conditions of the previous experiment.24 hours after the last treatment the animals have been sacrificed, and the liver has been removed and stored at -20° C. up to the time of dosing the activity of the catalase enzyme (Methods of enzymatic analysis, vol.2, pag. 673, 1974 edit. H. U. Bergmeyer, Verlag Chemie International).

liver = assay: Hepatic tolerability, 15 days at high dose: hepatic index; settings: rat, 200 mg/kg, standard; absolute values; solvent 5,4
Procedure: as §1

[1] = system: hyperlipaemic SD male rats; assay: Hypolipemizing activity, 5 days experimental model, modified Nath diet; settings: rat, oral; for change in vivo at 100 mg/kg/day / change in vivo at 300 mg/kg/day: 120 h; for Hepatic index (percent variation vs hyperlipaemic controls): index = (Liver weight/body weight) × 100
Procedure: The hypolipemizing activity of the compounds of the present invention has been evaluated in the rat using SD male animals (Charles River) of an initial weight of 150 g, housed in controlled environment at a temperature of 21°±1° C., relative humidity 60% and a 12 hours light/dark cycle.
Experimental models have been used in which the animals are rendered hiperlipaemic by "ad libitum" food administration with a modified Nath diet (Atherosclerosis 30, 1978, pag. 45-46) having the following composition: […]
hydrogenated coconut oil
In the first model the animals have been fed with this diet for 5 consecutive days, during which they received the pharmacological treatment once a day by oral route and were sacrificed 2 hours after the last administration.
At the time of the sacrifice the blood was removed, for the lipid determination, as well as the liver the weight of which was the index of a possible hepatomegaly.
By this experimental model the concentration of the serum lipids attained very high values which, in the control group, was four times the normal values for the total cholesterol and the triglycerides.
The determination of the triglycerides, of the total cholesterol and of the cholesterol associated to the HDL has been effected by means of a commercial enzymatic kit. The concentration of the cholesterol associated to VLDL+LDL has been determined by difference between total cholesterol and HDL.
The results obtained in the experimental model of the 5 days duration for some compounds representative of the invention are reported in the following table 1. The data are expressed as percent variation with respect to the hyperlipaemic controls to which carboxymethylcellulose as 0.5% in water at the dose of 10 ml/kg/day by oral route was administered. The same vehicle was used for the suspension of the tested compounds at the doses of 100 and 300 mg/kg/day by oral route.

[2] = 100 mg/kg/day, by difference between total and HDL, read-out: Cholesterol VLDL + LDL (percent variation vs hyperlipaemic controls)
[3] = 100 mg/kg/day, read-out: Cholesterol HDL (percent variation vs hyperlipaemic controls)
[4] = 100 mg/kg/day, read-out: Total Cholesterol (percent variation vs hyperlipaemic controls)
[5] = 100 mg/kg/day, read-out: Triglycerides (percent variation vs hyperlipaemic controls)
[6] = 300 mg/kg/day, by difference between total and HDL, read-out: Cholesterol VLDL + LDL (percent variation vs hyperlipaemic controls)
[7] = 300 mg/kg/day, read-out: Cholesterol HDL (percent variation vs hyperlipaemic controls)
[8] = 300 mg/kg/day, read-out: Total Cholesterol (percent variation vs hyperlipaemic controls)
[9] = 300 mg/kg/day, read-out: Triglycerides (percent variation vs hyperlipaemic controls)

SMILES	Catalase enzyme activity (catalase enzyme)	Hepatic index (Liver weight/body weight) × 100 (liver)	change in vivo at 100 mg/kg/day [1, 2]	change in vivo at 100 mg/kg/day [1, 3]	change in vivo at 100 mg/kg/day [1, 4]	change in vivo at 100 mg/kg/day [1, 5]	change in vivo at 300 mg/kg/day [1, 6]	change in vivo at 300 mg/kg/day [1, 7]	change in vivo at 300 mg/kg/day [1, 8]	change in vivo at 300 mg/kg/day [1, 9]	Hepatic index (percent variation vs hyperlipaemic controls) ([1]; 100 mg/kg/day)	Hepatic index (percent variation vs hyperlipaemic controls) ([1]; 300 mg/kg/day)
CCOC(=O)C(C)(C)Oc1ccc(Cl)cc1 [Clofibrate, reference compound]	680,9 umoli/min/mg proteins	7,0										
CC(C)COC(=O)c1ccc(OCC(=O)CSc2nc3ccccc3o2)cc1 [Example 1, 2-[3-[(p-isobutyloxycarbonyl)-phenoxyl]-2-oxo-propylthio]-benzoxazole]			-6.1%	2.6%	-5.7%	-27.6%	-6.4%	17.9%	-5.2%	-18.4%	-8,5%	-2,5%
CC(C)COC(=O)c1ccc(OCC(=O)CSc2nc3c([nH]2)c(=O)n(C)c(=O)n3C)cc1 [Example 3]			-1.3%	11.7%	-1.1%	-6.5%	-10.7%	3.5%	-10.5%	-5.8%	+3,2%	-1,5%
CC(C)COC(=O)c1ccc(OCC(O)CSc2nccn2C)cc1 (centres unmarked) [Example 4, 1-methyl-2-[3-[(p-isobutyloxycarbonyl)-phenoxy]-2-hydroxy-propylthio]-imidazole hydrochloride]			9.2%	-3.4%	7.7%	-5.9%	-4%	8.2%	-2.6%	0.2%	+2,2%	+4,3%
CC(C)COC(=O)c1ccc(OCC(O)CSc2ncccn2)cc1 (centres unmarked) [Example 5, 2-[3-[(p-isobutyloxycarbonyl)-phenoxy]-2-hydroxy-propylthio]-pirimidine hydrochloride]			24%	-17.7%	22.3%	13.8%	-20.7%	-8.5%	-20.3%	-14.9%	-4,1%	-5,7%
CCOc1ccc2nc(SCC(O)COc3ccc(C(=O)OCC(C)C)cc3)sc2c1 (centres unmarked) [Example 9, 2-[3-[(p-isobutyloxycarbonyl)-phenoxy]-2-hydroxy-propylthio]6-ethoxy-benzothiazole]			0.9%	2.4%	1%	0.9%	-7%	-0.2%	-6.5%	2.8%	-0,8%	-1,2%
CC(C)COC(=O)c1ccc(OCC(O)CSc2nc3cc(Cl)ccc3s2)cc1 (centres unmarked) [Example 10, 2-[3-[(p-isobutyloxycarbonyl)-phenoxy]-2-hydroxy-propylthio]5-chloro-benzothiazole]			-20.4%	5.5%	-18.6%	-8.5%	-26.4%	17.3%	-23.3%	-26.3%	-2,2%	-0,6%
CC(C)COC(=O)c1ccc(OCC(CSc2nc3ccccc3o2)OC(=O)c2cccnc2)cc1 (centres unmarked) [Example 12]			11.5%	12.5%	11.6%	-19%	-8.9%	8.6%	-7.8%	-39.4%	-3,9%	-10,8%
CC(C)COC(=O)c1ccc(OCC(O)CSc2nc3cc4ccccc4cc3o2)cc1 (centres unmarked) [Example 15]			17.6%	0.8%	16.5%	5%	-9.8%	13.4%	-8.2%	5.2%	-2,6%	+0,6%
CC(C)COC(=O)c1ccc(OCC(O)CSc2nc3ccccc3[nH]2)cc1 (centres unmarked) [Example 18]			0.2%	3.2%	1%	-19%	9%	6.5%	9.1%	-13.1%	+3,8%	+3,9%
CC(C)COC(=O)c1ccc(OCCCSc2nc3c(N)ncnc3n2[C@@H]2O[C@H](CO)[C@@H](O)[C@H]2O)cc1 [Example 25]			-10%	-1.2%	-9.7%	-3.3%	-4.8%	-7.1%	-5.2%	15.7%	-1,1%	-2,8%
CC(C)COC(=O)c1ccc(OCCSc2nc3c(N)ncnc3n2[C@@H]2O[C@H](CO)[C@@H](O)[C@H]2O)cc1 [Example 27]			-14.6%	0.1%	-13.6%	-0.4%	-19.3%	5.7%	-18.4%	-10.2%	+0,8%	+0,7%
CC(C)COC(=O)c1ccc(OCC(CSc2nc3c(N)ncnc3n2[C@@H]2O[C@H](CO)[C@@H](O)[C@H]2O)=NO)cc1 [Example 31]			-6.6%	3.2%	-0.3%	14.7%	-25.7%	-5.1%	-24.7%	-0.7%	+3,6%	-1,5%

Reference: patent publication US5470858A, “Derivatives of (hetero)aromatic ethers and thioethers having antihyperlipidemic activity, process for their preparation and pharmaceutical compositions containing them” (Pierrel SpA, priority 1991, dated 1995)
